Experimental findings from PMC7604896, “Synthesis and Antiviral Properties of 1-Substituted 3-[ω-(4-Oxoquinazolin-4(3H)-yl)alkyl]uracil Derivatives” (Acta Naturae, 2020) are described below.

What is called CC50 is the concentration at which the toxic effect on the cells reaches its halfway point. Usually EC50 stands for the concentration needed to bring the measured effect to its halfway point. As a reminder, the melting point is the temperature of the solid-liquid transition.

Molecules are shown by their SMILES.

Data set [1] is described as follows: Cytotoxicity, inhibition of cell growth in HEL cell culture. To be noted: human; HEL cells; concentration reducing cell growth by 50%. The class given is cell-based.
For another data set, the system named is VZV Oka (TK+). The experiment in a line: microbe, parasite or virus in culture. The class given is cell-based, varicella zoster virus. Particulars: Human alphaherpesvirus 3, HEL, read-out: Antiviral activity, EC50 VZV Oka (TK+). The method, then: (§1) The compounds were evaluated against human cytomegalovirus (HCMV, strains AD-169 and Davis) and the varicella zoster virus (VZV, strains OKA and YS). The antiviral assays were based on the inhibition of virus-induced cytopathicity or plaque formation in human embryonic lung (HEL) fibroblasts. Confluent cell cultures in 96-well microplates were inoculated with 100 CCID50 of the virus (1 CCID50 being the virus dose to infect 50% of the cell culture) or 10 or 100 plaque-forming units (PFU) (for VZV and HCMV) in the presence of varied concentrations of the test compounds. Viral cytopathicity or plaque formation was recorded as soon as it reached completion in the control virus-infected cell cultures not treated with the test compounds.

The subject of another data set is VZV 07-1 (TK-). The experiment in a line: microbe, parasite or virus in culture. Particulars: Human alphaherpesvirus 3, HEL, read-out: Antiviral activity, EC50 VZV 07-1 (TK-). The class given is cell-based, varicella zoster virus.
The subject of a further data set is HEL cells. The experiment in a line: Cytotoxicity, alteration of cell morphology in HEL cell culture. The format is cell-based, human. To be noted: minimum cytotoxic concentration causing microscopically detectable alteration of cell morphology.
The subject of a further data set is HCMV AD-169. The data set is described as follows: Anti-HCMV assay (AD-169 strain), inhibition of virus-induced cytopathicity or plaque formation in HEL fibroblasts. The format is cell-based, human cytomegalovirus. To be noted: HEL cell culture; for EC50: Human betaherpesvirus 5, AD169, concentration reducing virus plaque formation by 50%, read-out: Antiviral activity, EC50 HCMV AD-169; for Inhibitory properties against HCMV (in words): AD-169 and Davis strains. How it is done: as §1
Background: Damage to the host cells serves as the signal in cytopathic effect assays.

A further data set concerns HCMV Davis. The data set is described as follows: Anti-HCMV assay (Davis strain), inhibition of virus-induced cytopathicity or plaque formation in HEL fibroblasts. The format is cell-based, human cytomegalovirus. Particulars: Human betaherpesvirus 5; HEL cell culture; concentration reducing virus plaque formation by 50%; read-out: Antiviral activity, EC50 HCMV Davis. The method, then: as §1

On to `Nc1nc2c(ncn2COCCO)c(=O)[nH]1` [Acyclovir, reference compound], for which the CC50 in data set [1] was > 100 µM.
Turning to `O=c1[nH]c(=O)n([C@H]2C[C@H](O)[C@@H](CO)O2)cc1/C=C/Br` [Brivudine, reference compound], the concentration giving a half-maximal response (EC50) amounted to 0.039 µM in the data set with VZV Oka (TK+) and 6.04 µM in the data set with VZV 07-1 (TK-). Moreover, the “Cytotoxicity, Cell morphology MCC” value with HEL cells is given as > 300 μM. Besides, the CC50 in data set [1] was > 100 µM.
In the case of `Nc1ccn(C[C@@H](CO)OCP(=O)(O)O)c(=O)n1` [Cidofovir, reference compound], the EC50 with HCMV AD-169 and in the data set with HCMV Davis was 0.38 µM each time. For the same molecule, the “Cytotoxicity, Cell morphology MCC” value in the data set with HEL cells is given as 300 μM. The CC50 in data set [1] was 129 µM.
In turn, `O=c1c2ccccc2ncn1CCn1c(=O)ccn(CCCOc2ccc(Br)cc2)c1=O` [Compound 9, 1-[3-(4-Bromophenoxy)propyl]-3-[2-(4-oxoquinazolin-4(3H)-yl)ethyl]uracil] displayed a melting point of 178.5 to 179.5 °C. Besides, in the data set on HCMV AD-169, the “Inhibitory properties against HCMV (in words)” value (from here on “Inhibitory properties”) is reported as “complete loss of inhibitory properties” and the EC50 was > 100 µM. The EC50 with HCMV Davis was > 100 µM. Also, the EC50 with VZV Oka (TK+) is > 100 µM. In addition, the EC50 in the data set with VZV 07-1 (TK-) was > 100 µM. The “Cytotoxicity, Cell morphology MCC” value with HEL cells came to 100 μM.
Molecule `O=c1c2ccccc2ncn1CCn1c(=O)ccn(CCCCOc2ccc(Br)cc2)c1=O` [Compound 10, 1-[4-(4-Bromophenoxy)butyl]-3-[2-(4-oxoquinazolin-4(3H)-yl)ethyl]uracil] registered a melting point of 191 to 192 °C. For the same molecule, in the data set on HCMV AD-169, the “Inhibitory properties” value is “complete loss of inhibitory properties” and the half-maximal effective concentration (EC50) was > 20 µM. Further, in the data set with HCMV Davis, the EC50 is > 100 µM. Also, the EC50 in the data set with VZV Oka (TK+) is > 20 µM. In addition, the EC50 with VZV 07-1 (TK-) is > 100 µM. The “Cytotoxicity, Cell morphology MCC” value in the data set on HEL cells is on record as 20 μM.
For `O=c1c2ccccc2ncn1CCn1c(=O)ccn(CCCCCOc2ccc(Br)cc2)c1=O` [Compound 11, 1-[5-(4-Bromophenoxy)pentyl]-3-[2-(4-oxoquinazolin-4(3H)-yl)ethyl]uracil], the melting point lay within 174.5 to 176 °C. In the data set on HCMV AD-169, the “Inhibitory properties” value is “complete loss of inhibitory properties” and the EC50 is > 20 µM. Besides, the EC50 in the data set on HCMV Davis was > 20 µM. Further, the EC50 with VZV Oka (TK+) was > 20 µM. In addition, the concentration giving a half-maximal response (EC50) in the data set with VZV 07-1 (TK-) is > 100 µM. Besides, the “Cytotoxicity, Cell morphology MCC” value in the data set with HEL cells was 100 μM.
Regarding `O=c1c2ccccc2ncn1CCn1c(=O)ccn(CCCCCCOc2ccc(Br)cc2)c1=O` [Compound 12, 1-[6-(4-Bromophenoxy)hexyl]-3-[2-(4-oxoquinazolin-4(3H)-yl)ethyl]uracil], the melting point lay within 178.5 to 179.5 °C. In addition, the EC50 in the data set on HCMV AD-169 is > 100 µM. In the data set with HCMV Davis, the EC50 is > 20 µM. Further, the EC50 in the data set on VZV Oka (TK+) was > 100 µM. The EC50 in the data set on VZV 07-1 (TK-) was > 100 µM. In addition, the “Cytotoxicity, Cell morphology MCC” value in the data set on HEL cells was found to be 100 μM.
`O=c1c2ccccc2ncn1CCn1c(=O)ccn(CCCCCCCCOc2ccc(Br)cc2)c1=O` [Compound 13, 1-[8-(4-Bromophenoxy)octyl]-3-[2-(4-oxoquinazolin-4(3H)-yl)ethyl]uracil] gave a melting point of 171.5 to 173 °C. Further, the EC50 with HCMV AD-169 is > 100 µM. The EC50 in the data set with HCMV Davis was > 100 µM. Further, in the data set with VZV Oka (TK+), the EC50 is > 100 µM. For the same molecule, in the data set with VZV 07-1 (TK-), the EC50 is > 100 µM. Besides, the “Cytotoxicity, Cell morphology MCC” value with HEL cells is reported as > 100 μM. In addition, it took 12.8 µM to reach half-maximal cytotoxicity in data set [1] (CC50).
Regarding `O=c1c2ccccc2ncn1CCn1c(=O)ccn(CCCCCCCCCCOc2ccc(Br)cc2)c1=O` [Compound 14, 1-[10-(4-Bromophenoxy)decyl]-3-[2-(4-oxoquinazolin-4(3H)-yl)ethyl]uracil], the melting point is 161 to 162 °C. Moreover, the EC50 in the data set on HCMV AD-169 was > 100 µM. In addition, the EC50 with HCMV Davis is > 100 µM. Further, in the data set with VZV Oka (TK+), the concentration for a half-maximal effect (EC50) was > 100 µM. Besides, the EC50 with VZV 07-1 (TK-) was > 100 µM. Further, the “Cytotoxicity, Cell morphology MCC” value with HEL cells is listed as > 100 μM. For the same molecule, in data set [1], the CC50 is > 100 µM.
With `O=c1c2ccccc2ncn1CCn1c(=O)ccn(CCCCCCCCCCCCOc2ccc(Br)cc2)c1=O` [Compound 15, 1-[12-(4-Bromophenoxy)dodecyl]-3-[2-(4-oxoquinazolin-4(3H)-yl)ethyl]uracil], the melting point was in the range of 150 to 152 °C. Further, in the data set with HCMV AD-169, the EC50 was > 100 µM. The half-maximal effective concentration (EC50) with HCMV Davis was > 100 µM. Also, in the data set on VZV Oka (TK+), the EC50 is > 100 µM. The 50% effective concentration (EC50) with VZV 07-1 (TK-) was > 100 µM. The “Cytotoxicity, Cell morphology MCC” value with HEL cells was ≥ 100 μM. Further, in data set [1], the half-maximal cytotoxic concentration (CC50) is > 100 µM.
For `O=c1c2ccc(Cl)cc2ncn1CCn1c(=O)ccn(CCCCCOc2ccc(Br)cc2)c1=O` [Compound 16, 1-[5-(4-Bromophenoxy)pentyl]-3-[2-(7-chloro-4-oxoquinazolin-4(3H)-yl)ethyl]uracil], the melting point is 154 to 155 °C. In addition, in the data set on HCMV AD-169, the “Inhibitory properties” value is on record as “complete loss of inhibitory properties” and the EC50 was > 20 µM. Moreover, in the data set on HCMV Davis, the EC50 is > 20 µM. The EC50 in the data set on VZV Oka (TK+) is > 20 µM. Further, the EC50 with VZV 07-1 (TK-) is > 100 µM. For the same molecule, the “Cytotoxicity, Cell morphology MCC” value with HEL cells was 20 μM.
`O=c1c2ccccc2ncn1CCCn1c(=O)ccn(CCCCCOc2ccc(Br)cc2)c1=O` [Compound 17, 1-[5-(4-Bromophenoxy)pentyl]-3-[3-(4-oxoquinazolin-4(3H)-yl)propyl]uracil] registered a melting point of 103.5 to 104.5 °C. The EC50 with HCMV AD-169 is 7.31 µM. For the same molecule, the EC50 with HCMV Davis was found to be 5.23 µM. The EC50 with VZV Oka (TK+) stood at 29 µM. For the same molecule, in the data set with VZV 07-1 (TK-), the concentration for a half-maximal effect (EC50) was determined as 29 µM. The “Cytotoxicity, Cell morphology MCC” value with HEL cells stood at 20 μM. Also, the CC50 in data set [1] came out at 1.81 µM.
In turn, `Cc1ccc2ncn(CCn3c(=O)ccn(CCCCCOc4ccc(Br)cc4)c3=O)c(=O)c2c1` [Compound 18, 1-[5-(4-Bromophenoxy)pentyl]-3-[2-(6-methyl-4-oxoquinazolin-4(3H)-yl)ethyl]uracil] came in with a melting point of 180 to 181.5 °C. In the data set on HCMV AD-169, the “Inhibitory properties” value is “complete loss of inhibitory properties” and the EC50 is > 100 µM. Further, the EC50 in the data set on HCMV Davis was > 100 µM. Further, the half-maximal effective concentration (EC50) with VZV Oka (TK+) is > 100 µM. In addition, the EC50 in the data set on VZV 07-1 (TK-) is > 100 µM. The “Cytotoxicity, Cell morphology MCC” value with HEL cells is given as > 100 μM. For the same molecule, in data set [1], the CC50 was > 100 µM.
For the molecule `Nc1nc(O)c2ncn(COC(CO)CO)c2n1` [Ganciclovir, reference compound], the results for the EC50 with HCMV AD-169 and with HCMV Davis were 2.4 µM and 2.01 µM, respectively. The “Cytotoxicity, Cell morphology MCC” value in the data set on HEL cells came out at 350 μM. This molecule had a CC50 in data set [1] of 196 µM.
